Publication PMC7161708 (Acta Pharmaceutica Sinica. B, 2019)

What follows are compounds tested on phosphorylation of p70S6K (assay: Inhibition of p70S6K phosphorylation, α-screen assay in SH-SY5Y cell). Conditions: mean ± SD (n ≥ 3).
Assay type: cell-based

For `O=C(Nc1ncc([N+](=O)[O-])s1)c1ccccc1O` [Compound 2, tizoxanide, reference compound], which “Inhibition ratio of p70S6K phosphorylation at 20 μmol/L (%)” value (“Inhibition ratio … (%)” for short) is on record?
The value was 43.09±2.98%.

`CC(=O)Oc1ccccc1C(=O)Nc1nccs1` [Compound 4, 2-Acetyloxy-N-(thiazol-2-yl)benzamide] was tested. Which “Inhibition ratio … (%)” value did it give?
The value was 9.98±5.16%.

For `CC(=O)Oc1ccccc1C(=O)Nc1ncc(C#N)s1` [Compound 5, 2-Acetyloxy-N-(5-cyanothiazol-2-yl)benzamide], which “Inhibition ratio … (%)” value is on record?
Its value is 70.85±3.56%.

How did the “Inhibition ratio … (%)” value turn out when `COC(=O)c1cnc(NC(=O)c2ccccc2OC(C)=O)s1` [Compound 6, Methyl 2-(2-acetoxybenzamido)thiazole-5-carboxylate] was run?
The value was 32.72±7.87%.

Which “Inhibition ratio … (%)” value does the source give for `CC(=O)Oc1ccccc1C(=O)Nc1ncc(C(=O)OCc2ccccc2)s1` [Compound 7, Benzyl 2-(2-acetoxybenzamido)thiazole-5-carboxylate] here?
Its value is 18.88±5.27%.

How did the “Inhibition ratio … (%)” value turn out when `CSc1cnc(NC(=O)c2ccccc2OC(C)=O)s1` [Compound 8, 2-Acetyloxy-N-(5-(methylthio)thiazol-2-yl)benzamide] was run?
Its value is 44.74±9.98%.

How did the “Inhibition ratio … (%)” value turn out when `CC(=O)Oc1ccccc1C(=O)Nc1ncc(S(C)(=O)=O)s1` [Compound 9, 2-Acetyloxy-N-(5-(methylsulfonyl)thiazol-2-yl)benzamide] was run?
Its value is 10.67±10.51%.

For `CC(=O)Oc1ccccc1C(=O)Nc1ncc(C(=O)O)s1` [Compound 10, 2-(2-Acetoxybenzamido)thiazole-5-carboxylic acid], which “Inhibition ratio … (%)” value is on record?
The value was −4.51±19.40%.

With `CC(=O)Oc1ccccc1C(=O)Nc1ncc(N2CCCCC2)s1` [Compound 11, 2-Acetyloxy-N-(5-(piperidin-1-yl)thiazol-2-yl)benzamide] as the compound, how does the “Inhibition ratio … (%)” value read?
The value was 56.27±4.61%.

How did the “Inhibition ratio … (%)” value turn out when `CC(=O)Oc1ccccc1C(=O)Nc1ncc(-n2cccc2)s1` [Compound 13, 2-Acetyloxy-N-(5-(1H-pyrrol-1-yl)thiazol-2-yl)benzamide] was run?
Its value is 69.85±0.53%.

Which “Inhibition ratio … (%)” value does the source give for `CC(=O)Oc1ccccc1C(=O)Nc1ncc(N2CCNCC2)s1` [Compound 14, 2-Acetyloxy-N-(5-(piperazin-1-yl)thiazol-2-yl)benzamide] here?
The value was 28.21±6.44%.

With `O=C(Nc1ncc(N2CCOCC2)s1)c1ccc(F)cc1O` [Compound 15, 4-Fluoro-2-hydroxy-N-(5-morpholinothiazol-2-yl)benzamide] as the compound, how does the “Inhibition ratio … (%)” value read?
The value was 42.25±0.19%.

For `O=C(Nc1ncc(N2CCOCC2)s1)c1ccc(Cl)cc1O` [Compound 16, 4-Chloro-2-hydroxy-N-(5-morpholinothiazol-2-yl)benzamide], which “Inhibition ratio … (%)” value is on record?
Its value is 21.02±4.56%.

For `O=C(Nc1ncc(N2CCOCC2)s1)c1ccc(Br)cc1O` [Compound 17, 4-Bromo-2-hydroxy-N-(5-morpholinothiazol-2-yl)benzamide], which “Inhibition ratio … (%)” value is on record?
The value was 15.41±5.32%.

For `O=C(Nc1ncc(N2CCOCC2)s1)c1ccc(C(F)(F)F)cc1O` [Compound 18, 2-Hydroxy-N-(5-morpholinothiazol-2-yl)-4-(trifluoromethyl)benzamide], which “Inhibition ratio … (%)” value is on record?
The value was 8.76±5.93%.

How did the “Inhibition ratio … (%)” value turn out when `O=C(Nc1ncc(N2CCOCC2)s1)c1ccccc1O` [Compound 19, 2-Hydroxy-N-(5-morpholinothiazol-2-yl)benzamide] was run?
The value was 53.79±3.85%.

How did the “Inhibition ratio … (%)” value turn out when `O=C(Nc1ncc(N2CCOCC2)s1)c1ccccc1C(F)(F)F` [Compound 25, N-(5-Morpholinothiazol-2-yl)-2-(trifluoromethyl)benzamide] was run?
Its value is 22.05±1.85%.

For `O=C(Nc1ncc(N2CCOCC2)s1)c1ccccc1F` [Compound 26, 2-Fluoro-N-(5-morpholinothiazol-2-yl)benzamide], which “Inhibition ratio … (%)” value is on record?
The value was 65.98±1.74%.

How did the “Inhibition ratio … (%)” value turn out when `O=C(Nc1ncc(N2CCOCC2)s1)c1ccccc1[N+](=O)[O-]` [Compound 27, N-(5-Morpholinothiazol-2-yl)-2-nitrobenzamide] was run?
Its value is 53.24±5.72%.

For `Cc1ccccc1C(=O)Nc1ncc(N2CCOCC2)s1` [Compound 28, 2-Methyl-N-(5-morpholinothiazol-2-yl)benzamide], which “Inhibition ratio … (%)” value is on record?
Its value is 55.38±1.66%.

`COc1ccccc1C(=O)Nc1ncc(N2CCOCC2)s1` [Compound 29, 2-Methoxy-N-(5-morpholinothiazol-2-yl)benzamide] was tested. Which “Inhibition ratio … (%)” value did it give?
The value was 26.90±6.23%.

With `O=C(Nc1ncc(N2CCOCC2)s1)C1CC1` [Compound 39, N-(5-Morpholinothiazol-2-yl)cyclopropanecarboxamide] as the compound, how does the “Inhibition ratio … (%)” value read?
The value was 63.76±1.31%.

Which “Inhibition ratio … (%)” value does the source give for `O=C(Nc1ncc(N2CCOCC2)s1)C1CCC1` [Compound 40, N-(5-Morpholinothiazol-2-yl)cyclobutanecarboxamide] here?
Its value is 66.21±3.74%.

For `O=C(Nc1ncc(N2CCOCC2)s1)C1CCCC1` [Compound 41, N-(5-Morpholinothiazol-2-yl)cyclopentanecarboxamide], which “Inhibition ratio … (%)” value is on record?
Its value is 63.37±4.65%.

For `O=C(Nc1ncc(N2CCOCC2)s1)C1CCCCC1` [Compound 42, N-(5-Morpholinothiazol-2-yl)cyclohexanecarboxamide], which “Inhibition ratio … (%)” value is on record?
The value was 61.15±1.44%.

Which “Inhibition ratio … (%)” value does the source give for `O=C(Nc1ncc(N2CCOCC2)s1)C1CCCCCC1` [Compound 43, N-(5-Morpholinothiazol-2-yl)cycloheptanecarboxamide] here?
The value was 51.10±1.59%.

Which “Inhibition ratio … (%)” value does the source give for `CC(=O)Nc1ncc(N2CCOCC2)s1` [Compound 45, N-(5-Morpholinothiazol-2-yl)acetamide] here?
The value was 43.86±4.45%.

Which “Inhibition ratio … (%)” value does the source give for `CCC(=O)Nc1ncc(N2CCOCC2)s1` [Compound 46, N-(5-Morpholinothiazol-2-yl)propionamide] here?
Its value is 44.98±8.58%.

How did the “Inhibition ratio … (%)” value turn out when `CCCC(=O)Nc1ncc(N2CCOCC2)s1` [Compound 47, N-(5-Morpholinothiazol-2-yl)butyramide] was run?
The value was 61.71±2.51%.

`CCCCCC(=O)Nc1ncc(N2CCOCC2)s1` [Compound 48, N-(5-Morpholinothiazol-2-yl)hexanamide] was tested. Which “Inhibition ratio … (%)” value did it give?
Its value is 61.32±5.39%.

Which “Inhibition ratio … (%)” value does the source give for `CC(C)CC(=O)Nc1ncc(N2CCOCC2)s1` [Compound 49, 3-Methyl-N-(5-morpholinothiazol-2-yl)butanamide] here?
Its value is 40.38±3.37%.

`O=C(CCC(F)(F)F)Nc1ncc(N2CCOCC2)s1` [Compound 50, 4,4,4-Trifluoro-N-(5-morpholinothiazol-2-yl)butanamide] was tested. Which “Inhibition ratio … (%)” value did it give?
Its value is 61.35±5.44%.

Which “Inhibition ratio … (%)” value does the source give for `O=C(Cc1ccccc1)Nc1ncc(N2CCOCC2)s1` [Compound 51, N-(5-Morpholinothiazol-2-yl)-2-phenylacetamide] here?
Its value is 47.82±3.90%.

Which “Inhibition ratio … (%)” value does the source give for `O=C1CCCCC1C(=O)Nc1ncc(N2CCOCC2)s1` (stereo not drawn) [Compound 53, N-(5-Morpholinothiazol-2-yl)-2-oxocyclohexanecarboxamide] here?
The value was 44.94±4.00%.

Which “Inhibition ratio … (%)” value does the source give for `CC(=O)CC(=O)Nc1ncc(N2CCOCC2)s1` [Compound 54, N-(5-Morpholinothiazol-2-yl)-3-oxobutanamide] here?
Its value is 66.46±3.73%.

`COC[C@H]1OC(=O)c2coc3c2[C@@]1(C)C1=C(C3=O)[C@@H]2CCC(=O)[C@@]2(C)C[C@H]1OC(C)=O` [WORT, wortmannin, reference compound] was tested. Which “Inhibition ratio … (%)” value did it give?
Its value is 90.68±1.46%.
